Data as given in ChEMBL document CHEMBL5724914, “Linking interpersonal differences in gut microbiota composition and drug biotransformation activity” (2024).

Test: (§1) The drug is tested on Z-028 corresponding to mouse gut metagenome with ENA study accession number: PRJEB37062 and ENA sample accession number: ERS12561827 for biotransformation under anaerobic condition. The drug concentrations were measured over 9 timepoints collected between 0 and 24 hours of incubation by liquid-chromatography-coupled mass spectrometry (LC–MS)
Details: 2 µM
Note: call rule not given here.

| Bacterial Biotransformation | SMILES |
| --- | --- |
| Compound metabolized | CC[C@H](C)C(=O)O[C@H]1C[C@@H](C)C=C2C=C[C@H](C)[C@H](CC[C@@H]3C[C@@H](O)CC(=O)O3)[C@H]21 [LOVASTATIN] |
| Compound NOT metabolized | CN(C)CC(c1ccc(O)cc1)C1(O)CCCCC1.O=C(O)CCC(=O)O (stereo not given) [DESVENLAFAXINE SUCCINATE] |

Test: as §1, with “Z-027” for “Z-028”, “to” for “to mouse gut”, “ERS12561826” for “ERS12561827”
Details: 2 µM

| Bacterial Biotransformation | SMILES |
| --- | --- |
| Compound NOT metabolized | CC[C@H](C)C(=O)O[C@H]1C[C@@H](C)C=C2C=C[C@H](C)[C@H](CC[C@@H]3C[C@@H](O)CC(=O)O3)[C@H]21 [LOVASTATIN] |
| Compound NOT metabolized | CN(C)CC(c1ccc(O)cc1)C1(O)CCCCC1.O=C(O)CCC(=O)O (stereo not given) [DESVENLAFAXINE SUCCINATE] |

Test: as §1, with “Z-024” for “Z-028”, “pig” for “mouse”, “ERS12561823” for “ERS12561827”
Details: 2 µM

| Bacterial Biotransformation | SMILES |
| --- | --- |
| Compound metabolized | CC[C@H](C)C(=O)O[C@H]1C[C@@H](C)C=C2C=C[C@H](C)[C@H](CC[C@@H]3C[C@@H](O)CC(=O)O3)[C@H]21 [LOVASTATIN] |
| Compound NOT metabolized | CN(C)CC(c1ccc(O)cc1)C1(O)CCCCC1.O=C(O)CCC(=O)O (stereo not given) [DESVENLAFAXINE SUCCINATE] |

Test: as §1, with “Z-020” for “Z-028”, “rabbit” for “mouse”, “ERS12561819” for “ERS12561827”
Details: 2 µM

| Bacterial Biotransformation | SMILES |
| --- | --- |
| Compound metabolized | CC[C@H](C)C(=O)O[C@H]1C[C@@H](C)C=C2C=C[C@H](C)[C@H](CC[C@@H]3C[C@@H](O)CC(=O)O3)[C@H]21 [LOVASTATIN] |
| Compound NOT metabolized | CN(C)CC(c1ccc(O)cc1)C1(O)CCCCC1.O=C(O)CCC(=O)O (stereo not given) [DESVENLAFAXINE SUCCINATE] |

Test: as §1, with “Z-013” for “Z-028”, “rabbit” for “mouse”, “ERS12561813” for “ERS12561827”
Details: 2 µM

| Bacterial Biotransformation | SMILES |
| --- | --- |
| Compound NOT metabolized | CC[C@H](C)C(=O)O[C@H]1C[C@@H](C)C=C2C=C[C@H](C)[C@H](CC[C@@H]3C[C@@H](O)CC(=O)O3)[C@H]21 [LOVASTATIN] |
| Compound NOT metabolized | CN(C)CC(c1ccc(O)cc1)C1(O)CCCCC1.O=C(O)CCC(=O)O (stereo not given) [DESVENLAFAXINE SUCCINATE] |

Test: as §1, with “Z-009” for “Z-028”, “pig” for “mouse”, “ERS12561809” for “ERS12561827”
Details: 2 µM

| Bacterial Biotransformation | SMILES |
| --- | --- |
| Compound NOT metabolized | CC[C@H](C)C(=O)O[C@H]1C[C@@H](C)C=C2C=C[C@H](C)[C@H](CC[C@@H]3C[C@@H](O)CC(=O)O3)[C@H]21 [LOVASTATIN] |
| Compound NOT metabolized | CN(C)CC(c1ccc(O)cc1)C1(O)CCCCC1.O=C(O)CCC(=O)O (stereo not given) [DESVENLAFAXINE SUCCINATE] |

Test: as §1, with “Z-007” for “Z-028”, “rat” for “mouse”, “ERS12561807” for “ERS12561827”
Details: 2 µM

| Bacterial Biotransformation | SMILES |
| --- | --- |
| Compound NOT metabolized | CC[C@H](C)C(=O)O[C@H]1C[C@@H](C)C=C2C=C[C@H](C)[C@H](CC[C@@H]3C[C@@H](O)CC(=O)O3)[C@H]21 [LOVASTATIN] |
| Compound NOT metabolized | CN(C)CC(c1ccc(O)cc1)C1(O)CCCCC1.O=C(O)CCC(=O)O (stereo not given) [DESVENLAFAXINE SUCCINATE] |

Test: as §1, with “Z-001” for “Z-028”, “ERS12561801” for “ERS12561827”
Details: 2 µM

| Bacterial Biotransformation | SMILES |
| --- | --- |
| Compound NOT metabolized | CC[C@H](C)C(=O)O[C@H]1C[C@@H](C)C=C2C=C[C@H](C)[C@H](CC[C@@H]3C[C@@H](O)CC(=O)O3)[C@H]21 [LOVASTATIN] |
| Compound NOT metabolized | CN(C)CC(c1ccc(O)cc1)C1(O)CCCCC1.O=C(O)CCC(=O)O (stereo not given) [DESVENLAFAXINE SUCCINATE] |

Test: as §1, with “WLS-082” for “Z-028”, “human” for “mouse”, “ERS12561751” for “ERS12561827”
Details: 2 µM

| Bacterial Biotransformation | SMILES |
| --- | --- |
| Compound NOT metabolized | CC[C@H](C)C(=O)O[C@H]1C[C@@H](C)C=C2C=C[C@H](C)[C@H](CC[C@@H]3C[C@@H](O)CC(=O)O3)[C@H]21 [LOVASTATIN] |
| Compound NOT metabolized | CN(C)CC(c1ccc(O)cc1)C1(O)CCCCC1.O=C(O)CCC(=O)O (stereo not given) [DESVENLAFAXINE SUCCINATE] |

Test: as §1, with “WLS-006” for “Z-028”, “human” for “mouse”, “ERS12561741” for “ERS12561827”
Details: 2 µM

| Bacterial Biotransformation | SMILES |
| --- | --- |
| Compound NOT metabolized | CC[C@H](C)C(=O)O[C@H]1C[C@@H](C)C=C2C=C[C@H](C)[C@H](CC[C@@H]3C[C@@H](O)CC(=O)O3)[C@H]21 [LOVASTATIN] |
| Compound NOT metabolized | CN(C)CC(c1ccc(O)cc1)C1(O)CCCCC1.O=C(O)CCC(=O)O (stereo not given) [DESVENLAFAXINE SUCCINATE] |

Details: human gut metagenome, 24 h, 2 µM

| Bacterial Biotransformation | SMILES |
| --- | --- |
| Compound metabolized | CC[C@H](C)C(=O)O[C@H]1C[C@@H](C)C=C2C=C[C@H](C)[C@H](CC[C@@H]3C[C@@H](O)CC(=O)O3)[C@H]21 [LOVASTATIN] |
| Compound NOT metabolized | CN(C)CC(c1ccc(O)cc1)C1(O)CCCCC1.O=C(O)CCC(=O)O (stereo not given) [DESVENLAFAXINE SUCCINATE] |

Details: human gut metagenome, 24 h, 2 µM
Remark: another data set of the same source

| Bacterial Biotransformation | SMILES |
| --- | --- |
| Compound metabolized | CC[C@H](C)C(=O)O[C@H]1C[C@@H](C)C=C2C=C[C@H](C)[C@H](CC[C@@H]3C[C@@H](O)CC(=O)O3)[C@H]21 [LOVASTATIN] |
| Compound NOT metabolized | CN(C)CC(c1ccc(O)cc1)C1(O)CCCCC1.O=C(O)CCC(=O)O (stereo not given) [DESVENLAFAXINE SUCCINATE] |

Details: human gut metagenome, 24 h, 2 µM
Remark: another data set of the same source

| Bacterial Biotransformation | SMILES |
| --- | --- |
| Compound NOT metabolized | CC[C@H](C)C(=O)O[C@H]1C[C@@H](C)C=C2C=C[C@H](C)[C@H](CC[C@@H]3C[C@@H](O)CC(=O)O3)[C@H]21 [LOVASTATIN] |
| Compound NOT metabolized | CN(C)CC(c1ccc(O)cc1)C1(O)CCCCC1.O=C(O)CCC(=O)O (stereo not given) [DESVENLAFAXINE SUCCINATE] |

Details: human gut metagenome, 24 h, 2 µM
Remark: another data set of the same source

| Bacterial Biotransformation | SMILES |
| --- | --- |
| Compound NOT metabolized | CC[C@H](C)C(=O)O[C@H]1C[C@@H](C)C=C2C=C[C@H](C)[C@H](CC[C@@H]3C[C@@H](O)CC(=O)O3)[C@H]21 [LOVASTATIN] |
| Compound NOT metabolized | CN(C)CC(c1ccc(O)cc1)C1(O)CCCCC1.O=C(O)CCC(=O)O (stereo not given) [DESVENLAFAXINE SUCCINATE] |

Details: human gut metagenome, 24 h, 2 µM
Remark: another data set of the same source

| Bacterial Biotransformation | SMILES |
| --- | --- |
| Compound NOT metabolized | CC[C@H](C)C(=O)O[C@H]1C[C@@H](C)C=C2C=C[C@H](C)[C@H](CC[C@@H]3C[C@@H](O)CC(=O)O3)[C@H]21 [LOVASTATIN] |
| Compound NOT metabolized | CN(C)CC(c1ccc(O)cc1)C1(O)CCCCC1.O=C(O)CCC(=O)O (stereo not given) [DESVENLAFAXINE SUCCINATE] |

Details: human gut metagenome, 24 h, 2 µM
Remark: another data set of the same source

| Bacterial Biotransformation | SMILES |
| --- | --- |
| Compound NOT metabolized | CC[C@H](C)C(=O)O[C@H]1C[C@@H](C)C=C2C=C[C@H](C)[C@H](CC[C@@H]3C[C@@H](O)CC(=O)O3)[C@H]21 [LOVASTATIN] |
| Compound NOT metabolized | CN(C)CC(c1ccc(O)cc1)C1(O)CCCCC1.O=C(O)CCC(=O)O (stereo not given) [DESVENLAFAXINE SUCCINATE] |

Details: human gut metagenome, 24 h, 2 µM
Remark: another data set of the same source

| Bacterial Biotransformation | SMILES |
| --- | --- |
| Compound NOT metabolized | CC[C@H](C)C(=O)O[C@H]1C[C@@H](C)C=C2C=C[C@H](C)[C@H](CC[C@@H]3C[C@@H](O)CC(=O)O3)[C@H]21 [LOVASTATIN] |
| Compound NOT metabolized | CN(C)CC(c1ccc(O)cc1)C1(O)CCCCC1.O=C(O)CCC(=O)O (stereo not given) [DESVENLAFAXINE SUCCINATE] |

Details: human gut metagenome, 24 h, 2 µM
Remark: another data set of the same source

| Bacterial Biotransformation | SMILES |
| --- | --- |
| Compound metabolized | CC[C@H](C)C(=O)O[C@H]1C[C@@H](C)C=C2C=C[C@H](C)[C@H](CC[C@@H]3C[C@@H](O)CC(=O)O3)[C@H]21 [LOVASTATIN] |
| Compound NOT metabolized | CN(C)CC(c1ccc(O)cc1)C1(O)CCCCC1.O=C(O)CCC(=O)O (stereo not given) [DESVENLAFAXINE SUCCINATE] |

Details: human gut metagenome, 24 h, 2 µM
Remark: another data set of the same source

| Bacterial Biotransformation | SMILES |
| --- | --- |
| Compound NOT metabolized | CC[C@H](C)C(=O)O[C@H]1C[C@@H](C)C=C2C=C[C@H](C)[C@H](CC[C@@H]3C[C@@H](O)CC(=O)O3)[C@H]21 [LOVASTATIN] |
| Compound NOT metabolized | CN(C)CC(c1ccc(O)cc1)C1(O)CCCCC1.O=C(O)CCC(=O)O (stereo not given) [DESVENLAFAXINE SUCCINATE] |

Details: human gut metagenome, 24 h, 2 µM
Remark: another data set of the same source

| Bacterial Biotransformation | SMILES |
| --- | --- |
| Compound NOT metabolized | CC[C@H](C)C(=O)O[C@H]1C[C@@H](C)C=C2C=C[C@H](C)[C@H](CC[C@@H]3C[C@@H](O)CC(=O)O3)[C@H]21 [LOVASTATIN] |
| Compound NOT metabolized | CN(C)CC(c1ccc(O)cc1)C1(O)CCCCC1.O=C(O)CCC(=O)O (stereo not given) [DESVENLAFAXINE SUCCINATE] |
